According to BindingDB's records for doi:10.1021/jm00099a007 (Merck Research Laboratories, 1992):

Molecular target: T1, Gag-Pol polyprotein [588-1027]/[588-1147] (Human immunodeficiency virus 1, UniProt P04585)
T1 construct: 588-1027; 588-1147
Experiment: HIV-1 RT Assay

## O=c1[nH]c2ccccc2cc1NCc1ccc2ccccc2c1 [3-[(naphthalen-2-ylmethyl)amino]-1,2-dihydroquinolin-2-one]
  IC50: > 300 µM
